Test results reported in PubChem BioAssay (NCI).
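Method: 48-hour compound exposure of cells in 96-well plates, five concentrations, linear interpolation of endpoints. TGI denotes the concentration required for complete inhibition of growth.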

How the values were obtained:
Test in all cases: NCI tumour cell line growth inhibition, 48 h
XF 498 CNS = system: XF 498 CNS
SK-MEL-2 melanoma = system: SK-MEL-2 melanoma
SNB-75 CNS = system: SNB-75 CNS
SK-MEL-28 melanoma = system: SK-MEL-28 melanoma
HOP-62 NSCLC = system: HOP-62 NSCLC
RXF 393 renal = system: RXF 393 renal
NCI-H226 lung = system: NCI-H226 lung
SNB-78 CNS = system: SNB-78 CNS
DLD-1 colon = system: DLD-1 colon
OVCAR-4 ovarian = system: OVCAR-4 ovarian
UO-31 renal = system: UO-31 renal
SK-MEL-5 melanoma = system: SK-MEL-5 melanoma
HL-60(TB) leukemia = system: HL-60(TB) leukemia
OVCAR-8 ovarian = system: OVCAR-8 ovarian
LXFL 529 NSCLC = system: LXFL 529 NSCLC
M14 melanoma = system: M14 melanoma
HT29 colon = system: HT29 colon
SW-620 colon = system: SW-620 colon
SNB-19 CNS = system: SNB-19 CNS
HCT-15 colon = system: HCT-15 colon
K-562 leukemia = system: K-562 leukemia
UACC-257 melanoma = system: UACC-257 melanoma
SN12C renal = system: SN12C renal
SF-295 CNS = system: SF-295 CNS
KM20L2 colon = system: KM20L2 colon
HCC-2998 colon = system: HCC-2998 colon
786-0 renal = system: 786-0 renal
DMS 114 small cell lung = system: DMS 114 small cell lung
MALME-3M melanoma = system: MALME-3M melanoma
M19-MEL melanoma = system: M19-MEL melanoma
ACHN renal = system: ACHN renal
MOLT-4 leukemia = system: MOLT-4 leukemia
OVCAR-3 ovarian = system: OVCAR-3 ovarian
RPMI-8226 leukemia = system: RPMI-8226 leukemia
A549 NSCLC = system: A549 NSCLC
SK-OV-3 ovarian = system: SK-OV-3 ovarian
LOX IMVI melanoma = system: LOX IMVI melanoma
TK-10 renal = system: TK-10 renal
NCI-H460 lung = system: NCI-H460 lung
COLO 205 colon = system: COLO 205 colon
KM12 colon = system: KM12 colon
U251 CNS = system: U251 CNS
CCRF-CEM leukemia = system: CCRF-CEM leukemia
HCT-116 colon = system: HCT-116 colon
HOP-92 NSCLC = system: HOP-92 NSCLC
CAKI-1 renal = system: CAKI-1 renal
UACC-62 melanoma = system: UACC-62 melanoma
IGROV1 ovarian = system: IGROV1 ovarian
RXF-631 renal = system: RXF-631 renal
OVCAR-5 ovarian = system: OVCAR-5 ovarian
DMS 273 small cell lung = system: DMS 273 small cell lung
HOP-18 NSCLC = system: HOP-18 NSCLC
EKVX NSCLC = system: EKVX NSCLC
SF-539 CNS = system: SF-539 CNS
NCI-H23 lung = system: NCI-H23 lung
SF-268 CNS = system: SF-268 CNS
A498 renal = system: A498 renal
SR leukemia = system: SR leukemia

## CC1(C)C(O)OC(O)C1(C)C (stereo unspecified)
XF 498 CNS
  TGI: > 100 µM
SK-MEL-2 melanoma
  TGI: > 100 µM
SNB-75 CNS
  TGI: > 100 µM
SK-MEL-28 melanoma
  TGI: > 100 µM
HOP-62 NSCLC
  TGI: > 100 µM
RXF 393 renal
  TGI: 94.6 µM
NCI-H226 lung
  TGI: > 100 µM
SNB-78 CNS
  TGI: > 100 µM
DLD-1 colon
  TGI: > 100 µM
OVCAR-4 ovarian
  TGI: > 100 µM
UO-31 renal
  TGI: > 100 µM
SK-MEL-5 melanoma
  TGI: > 100 µM
HL-60(TB) leukemia
  TGI: > 100 µM
OVCAR-8 ovarian
  TGI: > 100 µM
LXFL 529 NSCLC
  TGI: > 100 µM
M14 melanoma
  TGI: > 100 µM
HT29 colon
  TGI: > 100 µM
SW-620 colon
  TGI: > 100 µM
SNB-19 CNS
  TGI: > 100 µM
HCT-15 colon
  TGI: > 100 µM
K-562 leukemia
  TGI: > 100 µM
UACC-257 melanoma
  TGI: > 100 µM
SN12C renal
  TGI: > 100 µM
SF-295 CNS
  TGI: > 100 µM
KM20L2 colon
  TGI: > 100 µM
HCC-2998 colon
  TGI: > 100 µM
786-0 renal
  TGI: > 100 µM
DMS 114 small cell lung
  TGI: > 100 µM
MALME-3M melanoma
  TGI: > 100 µM
M19-MEL melanoma
  TGI: > 100 µM
ACHN renal
  TGI: > 100 µM
MOLT-4 leukemia
  TGI: > 100 µM
OVCAR-3 ovarian
  TGI: > 100 µM
RPMI-8226 leukemia
  TGI: > 100 µM
A549 NSCLC
  TGI: > 100 µM
SK-OV-3 ovarian
  TGI: > 100 µM
LOX IMVI melanoma
  TGI: > 100 µM
TK-10 renal
  TGI: > 100 µM
NCI-H460 lung
  TGI: > 100 µM
COLO 205 colon
  TGI: > 100 µM
KM12 colon
  TGI: > 100 µM
U251 CNS
  TGI: > 100 µM
CCRF-CEM leukemia
  TGI: > 100 µM
HCT-116 colon
  TGI: > 100 µM
HOP-92 NSCLC
  TGI: > 100 µM
CAKI-1 renal
  TGI: > 100 µM
UACC-62 melanoma
  TGI: > 100 µM
IGROV1 ovarian
  TGI: > 100 µM
RXF-631 renal
  TGI: > 100 µM
OVCAR-5 ovarian
  TGI: > 100 µM
DMS 273 small cell lung
  TGI: > 100 µM
HOP-18 NSCLC
  TGI: > 100 µM
EKVX NSCLC
  TGI: > 100 µM

## CC(=O)NC1C(O)CC(OCCCSCCN)(C(=O)O)OC1C(O)C(O)CO (stereo unspecified)
XF 498 CNS
  TGI: > 100 µM
SF-539 CNS
  TGI: > 100 µM
SK-MEL-2 melanoma
  TGI: > 100 µM
SNB-75 CNS
  TGI: > 100 µM
SK-MEL-28 melanoma
  TGI: > 100 µM
RXF 393 renal
  TGI: > 100 µM
NCI-H23 lung
  TGI: > 100 µM
NCI-H226 lung
  TGI: > 100 µM
SNB-78 CNS
  TGI: > 100 µM
DLD-1 colon
  TGI: > 100 µM
OVCAR-4 ovarian
  TGI: > 100 µM
SK-MEL-5 melanoma
  TGI: > 100 µM
HL-60(TB) leukemia
  TGI: > 100 µM
OVCAR-8 ovarian
  TGI: > 100 µM
LXFL 529 NSCLC
  TGI: > 100 µM
M14 melanoma
  TGI: > 100 µM
HT29 colon
  TGI: > 100 µM
SW-620 colon
  TGI: > 100 µM
SNB-19 CNS
  TGI: > 100 µM
HCT-15 colon
  TGI: > 100 µM
SF-268 CNS
  TGI: > 100 µM
UACC-257 melanoma
  TGI: > 100 µM
SN12C renal
  TGI: > 100 µM
SF-295 CNS
  TGI: > 100 µM
KM20L2 colon
  TGI: > 100 µM
HCC-2998 colon
  TGI: > 100 µM
DMS 114 small cell lung
  TGI: > 100 µM
MALME-3M melanoma
  TGI: > 100 µM
A498 renal
  TGI: > 100 µM
ACHN renal
  TGI: > 100 µM
MOLT-4 leukemia
  TGI: > 100 µM
RPMI-8226 leukemia
  TGI: > 100 µM
A549 NSCLC
  TGI: > 100 µM
LOX IMVI melanoma
  TGI: > 100 µM
TK-10 renal
  TGI: > 100 µM
NCI-H460 lung
  TGI: > 100 µM
COLO 205 colon
  TGI: > 100 µM
KM12 colon
  TGI: > 100 µM
U251 CNS
  TGI: > 100 µM
CCRF-CEM leukemia
  TGI: > 100 µM
HCT-116 colon
  TGI: > 100 µM
HOP-92 NSCLC
  TGI: > 100 µM
CAKI-1 renal
  TGI: > 100 µM
IGROV1 ovarian
  TGI: > 100 µM
RXF-631 renal
  TGI: > 100 µM
SR leukemia
  TGI: > 100 µM
OVCAR-5 ovarian
  TGI: > 100 µM
DMS 273 small cell lung
  TGI: > 100 µM
HOP-18 NSCLC
  TGI: > 100 µM
EKVX NSCLC
  TGI: > 100 µM

## C[Si](C)(C)CC(N)=O
XF 498 CNS
  TGI: > 100 µM
SK-MEL-2 melanoma
  TGI: > 100 µM
SNB-75 CNS
  TGI: > 100 µM
SK-MEL-28 melanoma
  TGI: > 100 µM
HOP-62 NSCLC
  TGI: > 100 µM
RXF 393 renal
  TGI: > 100 µM
NCI-H226 lung
  TGI: > 100 µM
SNB-78 CNS
  TGI: > 100 µM
DLD-1 colon
  TGI: > 100 µM
OVCAR-4 ovarian
  TGI: > 100 µM
UO-31 renal
  TGI: > 100 µM
SK-MEL-5 melanoma
  TGI: > 100 µM
HL-60(TB) leukemia
  TGI: > 100 µM
OVCAR-8 ovarian
  TGI: > 100 µM
LXFL 529 NSCLC
  TGI: > 100 µM
M14 melanoma
  TGI: > 100 µM
HT29 colon
  TGI: > 100 µM
SW-620 colon
  TGI: > 100 µM
SNB-19 CNS
  TGI: > 100 µM
HCT-15 colon
  TGI: > 100 µM
K-562 leukemia
  TGI: > 100 µM
UACC-257 melanoma
  TGI: > 100 µM
SN12C renal
  TGI: > 100 µM
SF-295 CNS
  TGI: > 100 µM
KM20L2 colon
  TGI: > 100 µM
HCC-2998 colon
  TGI: > 100 µM
786-0 renal
  TGI: > 100 µM
DMS 114 small cell lung
  TGI: > 100 µM
MALME-3M melanoma
  TGI: > 100 µM
M19-MEL melanoma
  TGI: > 100 µM
ACHN renal
  TGI: > 100 µM
MOLT-4 leukemia
  TGI: > 100 µM
OVCAR-3 ovarian
  TGI: > 100 µM
RPMI-8226 leukemia
  TGI: > 100 µM
A549 NSCLC
  TGI: > 100 µM
SK-OV-3 ovarian
  TGI: > 100 µM
LOX IMVI melanoma
  TGI: > 100 µM
TK-10 renal
  TGI: > 100 µM
NCI-H460 lung
  TGI: > 100 µM
COLO 205 colon
  TGI: > 100 µM
KM12 colon
  TGI: > 100 µM
U251 CNS
  TGI: > 100 µM
CCRF-CEM leukemia
  TGI: > 100 µM
HCT-116 colon
  TGI: > 100 µM
HOP-92 NSCLC
  TGI: > 100 µM
CAKI-1 renal
  TGI: > 100 µM
UACC-62 melanoma
  TGI: > 100 µM
IGROV1 ovarian
  TGI: > 100 µM
RXF-631 renal
  TGI: > 100 µM
OVCAR-5 ovarian
  TGI: > 100 µM
DMS 273 small cell lung
  TGI: > 100 µM
HOP-18 NSCLC
  TGI: > 100 µM
EKVX NSCLC
  TGI: > 100 µM
